Here are results for nine molecules from patent US9266904B2, “6-bridged heteroaryldihydropyrimidines for the treatment and prophylaxis of hepatitis B virus infection” (priority 2013, dated 2016).

As usually defined, the EC50 is the concentration giving half of the maximal effect.

Like-named read-outs stand apart in the source and are kept apart here.

Data set [1] relates to HBV replication in HepG2.2.15 cells. The data set is described as follows: Anti-HBV activity in vitro in HepG2.2.15 cells (extracellular HBV DNA by qPCR). It is filed as cell-based. The note with it: read-out: EC50. The source says:
HepG2.2.15 and HepDE19 are stably-transfected cell lines containing the HBV genome. Both cell lines are derived from the hepatoblastoma cell line Hep G2 (American Type Culture Collection, ATCC® HB-8065™) by the published procedures described in references: M A Selles et al. Proc. Natl. Acad. Sci. USA 1987, 84, 1005-1009 and H Guo et al. Journal of Virology 2007, 81, 12472-12484, respectively. Both cell lines were maintained in Dulbecco's modified Eagle's medium (DMEM)-F12 medium supplemented with 10% fetal bovine serum, 100 U/mL penicillin, 100 μg/mL streptomycin, and 0.5 mg/mL of G418.
While HepG2.2.15 cells constitutively support HBV replication and production of virus particles, HepDE19 cells are inducible by tetracycline. Addition of 1 μg/mL tetracycline in culture medium suppresses HBV replication in HepDE19 cells, whereas switching to tetracycline-free medium resumes this process.
HepG2.2.15 cells were seeded into 96-well plates (3×10^4 cells in 100 μL media per well) and incubated overnight at 37° C. The test compounds were serially half-log diluted in DMSO, then diluted 100 times in culture media. 100 μL diluted compounds were added into the plates to reach 0.5% final concentration of DMSO in every well. Five days after compound treatment, culture supernatant was collected for further analysis.
For quantitative PCR detection of extracellular HBV DNA, 100 μL culture supernatant was collected and processed in MagNA Pure 96 Nucleic Acid Purification System (Roche Applied Science) for viral DNA extraction. The extracted samples were subjected to HBV DNA quantification by qPCR. The effective compound concentration at which HBV replication is inhibited by 50% (EC50) was determined.
The Examples were tested in the above assays as described herein and found to have EC50<1 μM in HepG2.2.15 assay.
On the technique in general: Real-time PCR tracks product formation cycle by cycle.

Data set [2] can be described thus: Human microsomal clearance assay. It is filed as in vitro ADME. As for the experimental part: Microsomes were preincubated with test compound for 10 minutes at 37° C. in 100 mM phosphate buffer with pH 7.4. The reactions were initiated by adding NADPH regenerating system to give a final incubation volume of 400 μL. The incubations finally contained 1 μM test compound, 0.5 mg/mL liver microsomal protein, 3.0 mM glucose 6-phosphate, 1.0 mM NADP, 3.0 mM MgCl2 and 0.05 mg/mL glucose 6-phosphate dehydrogenase in 100 mM phosphate buffer with pH 7.4. After incubation times of 0, 3, 6, 9, 15 and 30 minutes, 50 μL, incubation was transferred to the quench solution containing the internal standard which was 2 μM tolbutamide. After precipitation and centrifugation, test compound concentrations in the samples were determined by LC-MS/MS. Controls of no NADPH regenerating system at zero and 30 minutes were also prepared and analyzed.

The mark [3] stands for this setting: Hepatitis B virus, HepG2.2.15, Anti-HBV activity in HepG2.2.15 cells.

`COC(=O)C1=C(CN2[C@@H]3COC[C@H]2C[C@@H](NC(N)=O)C3)NC(c2nccs2)=N[C@H]1c1ccc(F)cc1Cl` [Example 57, Methyl (4R)-4-(2-chloro-4-fluoro-phenyl)-2-thiazol-2-yl-6-[[(1S,5R)-7-endo-ureido-3-oxa-9-azabicyclo[3.3.1]nonan-9-yl]methyl]-1,4-dihydropyrimidine-5-carboxylate]: the EC50 in data set [1] (setting [3]) was 21.9 nM. In data set [2] (human, 1 μM, pH 7.4), the CLh turned out to be 5.0 mL/min/kg.
In the case of `CCOC(=O)C1=C(CN2[C@H]3C[C@@H](CC(=O)O)C[C@@H]2C(F)(F)C3)NC(c2nccs2)=N[C@H]1c1cccc(F)c1Cl` [Example 99, 2-[(1S,3R,5R)-8-[[(4R)-4-(2-chloro-3-fluoro-phenyl)-5-ethoxycarbonyl-2-thiazol-2-yl-1,4-dihydropyrimidin-6-yl]methyl]-6,6-difluoro-8-azabicyclo[3.2.1]octan-3-yl]acetic acid], the EC50 in data set [1] (setting [3]) was found to be 12.6 nM. The CLh in data set [2] (human, 1 μM, pH 7.4) was found to be 3 mL/min/kg.
On the same counts, the results for `COC(=O)C1=C(CN2C3CC(F)(F)C2C[C@](O)(CC(=O)O)C3)NC(c2nccs2)=N[C@H]1c1ccc(F)cc1Cl` (single isomer, unassigned) [Example 117] are 40.2 nM and 1.8 mL/min/kg.
For `CCOC(=O)C1=C(CN2C3CC(C(=O)O)CC2C(F)(F)C3)NC(c2nccs2)=N[C@H]1c1cccc(F)c1Cl` (stereo partly drawn) [Example 150, 8-[[(4R)-4-(2-chloro-3-fluoro-phenyl)-5-ethoxycarbonyl-2-thiazol-2-yl-1,4-dihydropyrimidin-6-yl]methyl]-6,6-difluoro-8-azabicyclo[3.2.1]octane-3-carboxylic acid] the same measures were 7.7 nM and 3.1 mL/min/kg.
For `CCOC(=O)C1=C(CN2[C@@H]3C[C@H](CC(=O)O)C[C@H]2C(F)(F)C3)NC(c2nccs2)=N[C@H]1c1ccccc1Br` [Example 92, 2-[(1R,3S,5S)-8-[[(4R)-4-(2-bromophenyl)-5-ethoxycarbonyl-2-thiazol-2-yl-1,4-dihydropyrimidin-6-yl]methyl]-6,6-difluoro-8-azabicyclo[3.2.1]octan-3-yl]acetic acid] the same measures were 1.5 nM and 1.7 mL/min/kg.
For `COC(=O)C1=C(CN2[C@H]3C[C@@H](CC(=O)O)C[C@@H]2C(F)(F)C3)NC(c2nccs2)=N[C@H]1c1ccc(Cl)c(F)c1` [Example 97, 2-[(1S,3R,5R)-8-[[(48)-4-(4-chloro-3-fluoro-phenyl)-5-methoxycarbonyl-2-thiazol-2-yl-1,4-dihydropyrimidin-6-yl]methyl]-6,6-difluoro-8-azabicyclo[3.2.1]octan-3-yl]acetic acid], in data set [1] (Anti-HBV activity in HepG2.2.15 cells), the EC50 amounted to 156 nM. Moreover, in data set [2] (human microsomal clearance), the CLh was determined as 0 mL/min/kg.
As for `COC(=O)C1=C(CN2C3CCC2CN(C(C)=O)C3)NC(c2nccs2)=N[C@H]1c1ccc(F)cc1Cl` [Example 122, Methyl (4R)-6-[(3-acetyl-3,8-diazabicyclo[3.2.1]octan-8-yl)methyl]-4-(2-chloro-4-fluoro-phenyl)-2-thiazol-2-yl-1,4-dihydropyrimidine-5-carboxylate], the EC50 in data set [1] (setting [3]) stood at 77.4 nM. In addition, the CLh in data set [2] (human, 1 μM, pH 7.4) came to 7.0 mL/min/kg.
With `COC(=O)C1=C(CN2C3COCC2CC(OC(C)=O)C3)NC(c2nccs2)=N[C@H]1c1ccc(F)cc1Cl` (stereo partly drawn) [Example 8, (R)-6-(7-Acetoxy-3-oxa-9-aza-bicyclo[3.3.1]non-9-ylmethyl)-4-(2-chloro-4-fluoro-phenyl)-2-thiazol-2-yl-1,4-dihydro-pyrimidine-5-carboxylic acid methyl ester], in data set [2] (human, 1 μM, pH 7.4), the CLh stood at 0 mL/min/kg.
Regarding `COC(=O)C1=C(CN2CC3CC2C(F)(F)C3)NC(c2nccs2)=N[C@H]1c1ccc(F)cc1Cl` (stereo partly drawn) [Example 144, Methyl (4R)-4-(2-chloro-4-fluoro-phenyl)-6-[(5,5-difluoro-3-azabicyclo[2.2.1]heptan-3-yl)methyl]-2-thiazol-2-yl-1,4-dihydropyrimidine-5-carboxylate], in data set [1] (setting [3]), the EC50 came out at 94 nM.
